Active and inactive are the calls of the source. No cut-off for these calls is given here.
Assays:
Staphylococcus aureus [1] = experiment: Bactericidal activity against Staphylococcus aureus ATCC 29213 assessed as time dependent killing at 4 times of MIC measured at 8 hrs; format: functional, organism-based
Klebsiella pneumoniae [2] = experiment: Bactericidal activity against Klebsiella pneumonia assessed as time dependent killing at 4 times of MIC measured at 8 hrs; format: functional, organism-based
Staphylococcus aureus [3] = experiment: Induction of resistance development in Staphylococcus aureus ATCC 29213 assessed as after 20 passages measured upto 4.5 times of MIC; format: functional
Klebsiella pneumoniae [4] = experiment: Induction of resistance development in Klebsiella pneumonia assessed as after 20 passages measured upto 4.5 times of MIC; format: functional
Staphylococcus aureus [5] = experiment: Anti-biofilm activity against Staphylococcus aureus ATCC 29213 assessed as relative biofilm clearance rate by crystal violet staining based assay; format: functional, organism-based
Klebsiella pneumoniae [6] = experiment: Anti-biofilm activity against Klebsiella pneumonia assessed as relative biofilm clearance rate by crystal violet staining based assay; format: functional, organism-based
Cell membrane [7] = experiment: Induction of outer membrane permeability in Klebsiella pneumonia assessed as increase in fluorescence intensity at 2 times of MIC by N-phenyl naphthylamine (NPN) dye based assay; format: cell membranes; conditions: Klebsiella pneumoniae
Cell membrane [8] = experiment: Induction of inner membrane permeability in Staphylococcus aureus ATCC 29213 assessed as increase in fluorescence intensity by propidium iodide uptake based microscopic imaging assay; format: cell membranes
Cell membrane [9] = experiment: Induction of inner membrane permeability in Klebsiella pneumonia assessed as increase in fluorescence intensity by propidium iodide uptake based microscopic imaging assay; format: cell membranes; conditions: Klebsiella pneumoniae
Cell membrane [10] = experiment: Induction of cytoplasmic membrane depolarization in Staphylococcus aureus ATCC 29213 assessed as increase in fluorescence intensity at 2 times of MIC measured upto 40 mins by DiSC35 dye based fluorescence method; format: cell membranes
Cell membrane [11] = experiment: Induction of cytoplasmic membrane depolarization in Klebsiella pneumonia assessed as increase in fluorescence intensity at 2 times of MIC measured upto 40 mins by DiSC35 dye based fluorescence method; format: cell membranes; conditions: Klebsiella pneumoniae, DISRUPTING AGENT
Cell membrane [12] = experiment: Induction of disruption of membrane integrity in Staphylococcus aureus ATCC 29213 assessed as leakage of intracellular proteins by Acid Blue 90 based assay; format: cell membranes
Cell membrane [13] = experiment: Induction of disruption of membrane integrity in Klebsiella pneumonia assessed as leakage of intracellular proteins by Acid Blue 90 based assay; format: cell membranes; conditions: Klebsiella pneumoniae
Calf thymus DNA [14] = experiment: Binding affinity to calf thymus DNA assessed as change in absorption measuring hyperchromism by UV-Vis absorption spectra analysis; format: nucleic-acid assay; conditions: Bos taurus
Calf thymus DNA [15] = experiment: Induction of calf thymus DNA double helix loss assessed as reduction in fluorescence intensity at 525 nm wavelength by acridine orange competition based assay; format: nucleic-acid assay; conditions: Bos taurus
Staphylococcus aureus [16] = experiment: Induction of ROS generation in Staphylococcus aureus ATCC 29213 assessed as increase in fluorescence intensity by DCFH-DA based microscopic analysis; format: functional, organism-based
Klebsiella pneumoniae [17] = experiment: Induction of ROS generation in Klebsiella pneumonia assessed as increase in fluorescence intensity by DCFH-DA based microscopic analysis; format: functional, organism-based
Staphylococcus aureus [18] = experiment: Induction of ROS generation in Staphylococcus aureus ATCC 29213 assessed as loss of GSH activity by Ellmans method; format: functional, organism-based
Klebsiella pneumoniae [19] = experiment: Induction of ROS generation in Klebsiella pneumonia assessed as loss of GSH activity by Ellmans method; format: functional, organism-based
Staphylococcus aureus [20] = experiment: Antibacterial activity against Staphylococcus aureus ATCC 29213 assessed as decrease in relative metabolic activity at 4 times of MIC by Alamar Blue assays; format: functional, organism-based
Klebsiella pneumoniae [21] = experiment: Antibacterial activity against Klebsiella pneumonia assessed as decrease in relative metabolic activity at 4 times of MIC by Alamar Blue assays; format: functional, organism-based
Staphylococcus aureus [22] = experiment: Antibacterial activity against methicillin-resistant Staphylococcus aureus assessed growth inhibition by micro broth dilution method; format: functional
Staphylococcus aureus [23] = experiment: Antibacterial activity against Staphylococcus aureus assessed growth inhibition by micro broth dilution method; format: functional
Staphylococcus aureus [24] = experiment: Antibacterial activity against Staphylococcus aureus ATCC 25923 assessed growth inhibition by micro broth dilution method; format: functional
Staphylococcus aureus [25] = experiment: Antibacterial activity against Staphylococcus aureus ATCC 29213 assessed growth inhibition by micro broth dilution method; format: functional
Enterococcus faecalis = experiment: Antibacterial activity against Enterococcus faecalis assessed growth inhibition by micro broth dilution method; format: functional
Klebsiella pneumoniae [26] = experiment: Antibacterial activity against Klebsiella pneumonia assessed growth inhibition by micro broth dilution method; format: functional
Escherichia coli [27] = experiment: Antibacterial activity against Escherichia coli assessed growth inhibition by micro broth dilution method; format: functional
Escherichia coli [28] = experiment: Antibacterial activity against Escherichia coli ATCC 25922 assessed growth inhibition by micro broth dilution method; format: functional
Pseudomonas aeruginosa [29] = experiment: Antibacterial activity against Pseudomonas aeruginosa assessed growth inhibition by micro broth dilution method; format: functional
Pseudomonas aeruginosa [30] = experiment: Antibacterial activity against Pseudomonas aeruginosa ATCC 27853 assessed growth inhibition by micro broth dilution method; format: functional
Acinetobacter baumannii = experiment: Antibacterial activity against Acinetobacter baumannii assessed growth inhibition by micro broth dilution method; format: functional
Klebsiella pneumoniae [31] = experiment: In vivo anti-infective effect against Klebsiella pneumonia p1-6305014 infected in mouse model assessed as reduction bacterial growth at 5 mg/kg; format: functional
Klebsiella pneumoniae [32] = experiment: In vivo anti-infective effect against Klebsiella pneumonia p1-6305014 infected in mouse model assessed as reduction bacterial growth at 15 mg/kg; format: functional
[33] = Thermodynamic solubility of the compound in water; format: physicochemical; conditions: read-out: Therm_solubility
Erythrocyte = experiment: Hemolytic activity in human RBC incubated measured upto 128 ug/ml; format: toxicity, cell-based; conditions: dose < 128 µg/ml
[34] = Cytotoxicity against human NOK cells assessed as cell viability at 8 ug/ml; format: toxicity, cell-based; conditions: nok-si, dose 8 µg/ml
[35] = Cytotoxicity against human FHC cells assessed as cell viability at 8 ug/ml; format: toxicity, cell-based; conditions: at 8 µg/mL, read-out: Activity
[36] = Tmax in mouse at 10 mg/kg, po; format: ADME, organism-based; conditions: in vivo
[37] = Cmax in mouse at 10 mg/kg, po; format: ADME, organism-based; conditions: in vivo
[38] = AUC (0 to t) in mouse at 10 mg/kg, po; format: ADME, organism-based; conditions: in vivo
[39] = AUC (0 to infinity) in mouse at 10 mg/kg, po; format: ADME, organism-based; conditions: in vivo
[40] = Half life in mouse at 10 mg/kg, po; format: ADME, organism-based; conditions: in vivo
[41] = Apparent volume of distribution in mouse at 10 mg/kg, po; format: ADME, organism-based; conditions: in vivo
[42] = Clearance in mouse at 10 mg/kg, po; format: ADME, organism-based; conditions: in vivo
[43] = AUMC (0 to t) in mouse at 10 mg/kg, po; format: ADME, organism-based; conditions: in vivo
[44] = AUMC (0 to infinity) in mouse at 10 mg/kg, po; format: ADME, organism-based; conditions: in vivo
[45] = MRT (0 to t) in mouse at 10 mg/kg, po; format: ADME, organism-based; conditions: in vivo
[46] = MRT (0 to infinity) in mouse at 10 mg/kg, po; format: ADME, organism-based; conditions: in vivo
[47] = Oral bioavailability in mouse at 10 mg/kg; format: ADME, organism-based; conditions: in vivo
[48] = Tmax in mouse at 10 mg/kg, iv; format: ADME, organism-based; conditions: in vivo
[49] = Cmax in mouse at 10 mg/kg, iv; format: ADME, organism-based; conditions: in vivo
[50] = Initial plasma concentration in mouse at 10 mg/kg, iv; format: ADME, organism-based; conditions: in vivo
[51] = AUC (0 to t) in mouse at 10 mg/kg, iv; format: ADME, organism-based; conditions: in vivo
[52] = AUC (0 to infinity) in mouse at 10 mg/kg, iv; format: ADME, organism-based; conditions: in vivo
[53] = Half life in mouse at 10 mg/kg, iv; format: ADME, organism-based; conditions: in vivo
[54] = Volume of distribution at steady state in mouse at 10 mg/kg, iv; format: ADME, organism-based; conditions: in vivo
[55] = Clearance in mouse at 10 mg/kg, iv; format: ADME, organism-based; conditions: in vivo
[56] = AUMC (0 to t) in mouse at 10 mg/kg, iv; format: ADME, organism-based; conditions: in vivo
[57] = AUMC (0 to infinity) in mouse at 10 mg/kg, iv; format: ADME, organism-based; conditions: in vivo
[58] = MRT (0 to t) in mouse at 10 mg/kg, iv; format: ADME, organism-based; conditions: in vivo
[59] = MRT (0 to infinity) in mouse at 10 mg/kg, iv; format: ADME, organism-based; conditions: in vivo
Staphylococcus aureus [60] = experiment: Anti-biofilm activity against Staphylococcus aureus ATCC 29213 assessed as relative biofilm clearance rate at 8 times of MIC by crystal violet staining based assay; format: functional
Klebsiella pneumoniae [61] = experiment: Anti-biofilm activity against Klebsiella pneumonia assessed as relative biofilm clearance rate at 8 times of MIC by crystal violet staining based assay; format: functional

## CCOC(=O)c1cn(Cc2ccc(Cl)c(Cl)c2)c2cc(C(C#N)C(=O)OCC)c(F)cc2c1=O (centres undefined)
Staphylococcus aureus [1]
  Activity: Active
Klebsiella pneumoniae [2]
  Activity: Active
Staphylococcus aureus [3]
  Activity: Active
Klebsiella pneumoniae [4]
  Activity: Active
Staphylococcus aureus [5]
  Activity: Dose-Dependent Effect
Klebsiella pneumoniae [6]
  Activity: Dose-Dependent Effect
Cell membrane [7]
  Activity: Dose-Dependent Effect
Cell membrane [8]
  Activity: Dose-Dependent Effect
Cell membrane [9]
  Activity: Dose-Dependent Effect
Cell membrane [10]
  Activity: Active
Cell membrane [11]
  Activity: Active
Cell membrane [12]
  Activity: Dose-Dependent Effect
Cell membrane [13]
  Activity: Dose-Dependent Effect
Calf thymus DNA [14]
  Activity: Active
Calf thymus DNA [15]
  Activity: Active
Staphylococcus aureus [16]
  Activity: Dose-Dependent Effect
Klebsiella pneumoniae [17]
  Activity: Dose-Dependent Effect
Staphylococcus aureus [18]
  Activity: Dose-Dependent Effect
Klebsiella pneumoniae [19]
  Activity: Dose-Dependent Effect
Staphylococcus aureus [20]
  Activity: Active
Klebsiella pneumoniae [21]
  Activity: Active

## CCCCCCCCn1cc(C(=O)OCC)c(=O)c2cc(F)c([C-](C#N)C(=O)OCC)cc21.[Na+] (centres undefined)
Staphylococcus aureus [22]
  MIC: 8 µg/mL
Staphylococcus aureus [23]
  MIC: 16 µg/mL
Staphylococcus aureus [24]
  MIC: 0.25 µg/mL
Staphylococcus aureus [25]
  MIC: 0.25 µg/mL
Enterococcus faecalis
  MIC: 4 µg/mL
Klebsiella pneumoniae [26]
  MIC: 0.25 µg/mL
Escherichia coli [27]
  MIC: 0.25 µg/mL
Escherichia coli [28]
  MIC: 0.25 µg/mL
Pseudomonas aeruginosa [29]
  MIC: 0.5 µg/mL
Pseudomonas aeruginosa [30]
  MIC: 0.5 µg/mL
Acinetobacter baumannii
  MIC: 0.25 µg/mL
Klebsiella pneumoniae [31]
  Activity: 1.5 log10CFU
Klebsiella pneumoniae [32]
  Activity: 4 log10CFU
[33]
  solubility thermodynamic: 27.5 µg/mL
Erythrocyte
  Activity: Non-Toxic
[34]
  Activity: Non-Toxic
[35]
  viability at 8 ug/ml: 70%
[36]
  Tmax: 30 min
[37]
  Cmax: 89 ng/mL
[38]
  AUC(0-t): 196 ng·h/mL
[39]
  AUC: 241 ng·h/mL
[40]
  half-life: 133 min
[41]
  Vz: 133.561 L/kg
[42]
  CL/F: 698 mL/min/kg
[43]
  AUMCt: 523 hr.hr.ng/ml
[44]
  AUMC: 1035 hr.hr.ng/ml
[45]
  MRT last: 161 min
[46]
  MRT: 250 min
[47]
  F: 26.6%
[48]
  Tmax: 1.98 min
[49]
  Cmax: 549 ng/mL
[50]
  C0: 1046 ng/mL
[51]
  AUC(0-t): 89.3 ng·h/mL
[52]
  AUC: 90.6 ng·h/mL
[53]
  half-life: 12 min
[54]
  Vdss: 1.976 L/kg
[55]
  CL: 191.07 mL/min/kg
[56]
  AUMCt: 13.3 hr.hr.ng/ml
[57]
  AUMC: 15 hr.hr.ng/ml
[58]
  MRT last: 9 min
[59]
  MRT inf: 10.2 min
Staphylococcus aureus [60]
  Activity: 70%
Klebsiella pneumoniae [61]
  Activity: 70%
